System: M. tuberculosis clinical isolates
Assay: MIC against clinical strains (BACTEC MGIT 960 System)
Type: cell-based
Settings: Mycobacterium tuberculosis

SMILES	MIC (strain 330, resistant clinical isolate, resistance HSR (Tables 2B, 2D)) [µM]	MIC (against 85 of the 96 clinical isolate strains tested (sensitive and resistant)) [µM]
Cl.NC[C@H]1OB2OCCOc3ccc(Cl)c1c32 [Example 4, (S)-(3-chloro-7,8-dihydro-2H-1,6,9-trioxa-9a-borabenzo[cd]azulen-2-yl)methanamine hydrochloride]	0.08	
NC[C@H]1OB2OCCOc3ccc(Cl)c1c32 [Example G4-CI]		< 0.1
